What was measured:
[1] = Cytotoxicity MTT assay, L929; format: cell-based, mouse; conditions: mouse, L929 fibroblast cells; MTT, 48 hours
In short: (§1)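 Seed 10 000 cells per well and let them grow overnight. Treat with compounds in medium for 48 h at 37 °C under 5% CO2. Replace medium with MTT at 0.5 mg mL^−1 for 3 h, dissolve formazan in DMSO, measure at 570 nm, normalise to DMSO control.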

[2] = tested on: L929 normal mouse fibroblast cell line; assay: Cytotoxicity MTT assay, L929; format: cell-based; conditions: IC50 (L929)/IC50 (T47D)
In short: as §1

LOX IMVI = assay: NCI60 five-dose screen; format: cell-based; conditions: Homo sapiens, melanoma; for CC50: read-out: LC50 (the source's name)
OVCAR-4 = assay: NCI60 five-dose screen; format: cell-based; conditions: Homo sapiens, OVCAR-4, ovarian cancer; for CC50: read-out: LC50 (the source's name)
BT-549 = assay: NCI60 five-dose screen; format: cell-based; conditions: Homo sapiens, BT-549, breast cancer; for CC50: read-out: LC50 (the source's name)
SF-539 = assay: NCI60 five-dose screen; format: cell-based; conditions: Homo sapiens, SF-539, CNS cancer; for CC50: read-out: LC50 (the source's name)
A498 = assay: NCI60 five-dose screen; format: cell-based; conditions: Homo sapiens, A498, renal cancer; for CC50: read-out: LC50 (the source's name)
DU-145 = assay: NCI60 five-dose screen; format: cell-based; conditions: Homo sapiens, DU-145, prostate cancer; for CC50: read-out: LC50 (the source's name)
[3] = tested on: T47D breast cancer cell line; assay: Cytotoxicity MTT assay, T47D; format: cell-based, human; conditions: Homo sapiens, T47D; MTT, 48 hours
In short: as §1

HOP-92 = assay: NCI60 five-dose screen; format: cell-based; conditions: Homo sapiens, HOP-92, NSC lung cancer; for CC50: read-out: LC50 (the source's name)
PC-3 = assay: NCI60 five-dose screen; format: cell-based; conditions: Homo sapiens, PC-3, prostate cancer; for CC50: read-out: LC50 (the source's name)
NCI-H460 = assay: NCI60 five-dose screen; format: cell-based; conditions: Homo sapiens, NCI-H460, NSC lung cancer; for CC50: read-out: LC50 (the source's name)
SNB-75 = assay: NCI60 five-dose screen; format: cell-based; conditions: Homo sapiens, SNB-75, CNS cancer; for CC50: read-out: LC50 (the source's name)
CAKI-1 = assay: NCI60 five-dose screen; format: cell-based; conditions: Homo sapiens, CAKI-1, renal cancer; for CC50: read-out: LC50 (the source's name)
HT29 = assay: NCI60 five-dose screen; format: cell-based; conditions: Homo sapiens, HT-29, HT29, colon cancer; for CC50: read-out: LC50 (the source's name)
HOP-62 = assay: NCI60 five-dose screen; format: cell-based; conditions: Homo sapiens, HOP-62, NSC lung cancer; for CC50: read-out: LC50 (the source's name)
NCI-H226 = assay: NCI60 five-dose screen; format: cell-based; conditions: Homo sapiens, NCI-H226, NSC lung cancer; for CC50: read-out: LC50 (the source's name)
HCT-15 = assay: NCI60 five-dose screen; format: cell-based; conditions: Homo sapiens, HCT-15, colon cancer; for CC50: read-out: LC50 (the source's name)
K-562 = assay: NCI60 five-dose screen; format: cell-based; conditions: Homo sapiens, K562, K-562, leukemia; for CC50: read-out: LC50 (the source's name)
A549/ATCC = assay: NCI60 five-dose screen; format: cell-based; conditions: Homo sapiens, NSC lung cancer; for CC50: read-out: LC50 (the source's name)
OVCAR-3 = assay: NCI60 five-dose screen; format: cell-based; conditions: Homo sapiens, OVCAR-3, ovarian cancer; for CC50: read-out: LC50 (the source's name)
ACHN = assay: NCI60 five-dose screen; format: cell-based; conditions: Homo sapiens, renal cancer; for CC50: read-out: LC50 (the source's name)
HCT-116 = assay: NCI60 five-dose screen; format: cell-based; conditions: Homo sapiens, HCT-116, colon cancer; for CC50: read-out: LC50 (the source's name)

Compound: CCOC(=O)c1c[nH]c(/C=N/NC(=O)c2[nH]c3ccc(Br)cc3c2-c2ccccc2)c1 [Derivative 3j, Ethyl (E)-5-((2-(5-bromo-3-phenyl-1H-indole-2-carbonyl)hydrazono)methyl)-1H-pyrrole-3-carboxylate]
- IC50 at 48 h [1]: 12.2 ± 1 µM
- Selectivity index (SI) [2]: 1.17
- GI50 (LOX IMVI): 2.82 µM
- CC50 (LOX IMVI): 40.9 µM
- GI50 (OVCAR-4): 2.28 µM
- CC50 (OVCAR-4): 34.8 µM
- GI50 (BT-549): 2.23 µM
- CC50 (BT-549): 29.5 µM
- GI50 (SF-539): 2.26 µM
- CC50 (SF-539): 19.4 µM
- GI50 (A498): 3.53 µM
- CC50 (A498): 43.4 µM
- GI50 (DU-145): 3.48 µM
- CC50 (DU-145): 35.6 µM
- IC50 [3]: 10.4 ± 2.9 µM
- GI50 (HOP-92): 4.56 µM
- CC50 (HOP-92): 58.6 µM
- GI50 (PC-3): 3.76 µM
- CC50 (PC-3): > 100 µM
- GI50 (NCI-H460): 2.41 µM
- CC50 (NCI-H460): 23.1 µM
- GI50 (SNB-75): 1.09 µM
- CC50 (SNB-75): 35.8 µM
- GI50 (CAKI-1): 1.46 µM
- CC50 (CAKI-1): 40.5 µM
- GI50 (HT29): 2.59 µM
- CC50 (HT29): 27.5 µM
- GI50 (HOP-62): 2.78 µM
- CC50 (HOP-62): 54.4 µM
- GI50 (NCI-H226): 3.07 µM
- CC50 (NCI-H226): 41.3 µM
- GI50 (HCT-15): 2.93 µM
- CC50 (HCT-15): 51.9 µM
- GI50 (K-562): 1.9 µM
- CC50 (K-562): 57.1 µM
- GI50 (A549/ATCC): 2.7 µM
- CC50 (A549/ATCC): 51.8 µM
- GI50 (OVCAR-3): 2.13 µM
- CC50 (OVCAR-3): 23.1 µM
- GI50 (ACHN): 3.39 µM
- CC50 (ACHN): 36.4 µM
- GI50 (HCT-116): 2.95 µM
- CC50 (HCT-116): 45.6 µM

Compound: O=C(N/N=C/c1cc(Br)c[nH]1)c1[nH]c2ccc(Br)cc2c1-c1ccccc1 [Derivative 3e, (E)-5-Bromo-N′-((4-bromo-1H-pyrrol-2-yl)methylene)-3-phenyl-1H-indole-2-carbohydrazide]
- IC50 at 48 h [1]: 22.3 ± 11.9 µM
- Selectivity index (SI) [2]: 9.29
- GI50 (LOX IMVI): 0.36 µM
- CC50 (LOX IMVI): 6.98 µM
- GI50 (OVCAR-4): 1.35 µM
- CC50 (OVCAR-4): 40.5 µM
- GI50 (BT-549): 0.314 µM
- CC50 (BT-549): 36.2 µM
- GI50 (SF-539): 0.214 µM
- CC50 (SF-539): 25.5 µM
- GI50 (A498): 5.47 µM
- CC50 (A498): 44.5 µM
- GI50 (DU-145): 0.352 µM
- CC50 (DU-145): 29.7 µM
- IC50 [3]: 2.4 ± 1.4 µM
- GI50 (HOP-92): 1.51 µM
- CC50 (HOP-92): 26.3 µM
- GI50 (PC-3): 0.382 µM
- CC50 (PC-3): 38.1 µM
- GI50 (NCI-H460): 0.353 µM
- CC50 (NCI-H460): 43.2 µM
- GI50 (SNB-75): 0.475 µM
- CC50 (SNB-75): 51 µM
- GI50 (CAKI-1): 0.329 µM
- CC50 (CAKI-1): 29 µM
- GI50 (HT29): 0.345 µM
- CC50 (HT29): 8.24 µM
- GI50 (HOP-62): 0.546 µM
- CC50 (HOP-62): > 100 µM
- GI50 (NCI-H226): 0.382 µM
- CC50 (NCI-H226): 29.9 µM
- GI50 (HCT-15): 0.28 µM
- CC50 (HCT-15): 13.5 µM
- GI50 (K-562): 0.393 µM
- CC50 (K-562): > 100 µM
- GI50 (A549/ATCC): 0.395 µM
- CC50 (A549/ATCC): 56.4 µM
- GI50 (OVCAR-3): 0.302 µM
- CC50 (OVCAR-3): 17.3 µM
- GI50 (ACHN): 0.418 µM
- CC50 (ACHN): 23.5 µM
- GI50 (HCT-116): 0.242 µM
- CC50 (HCT-116): 85 µM

From article PMC12203311, “Design, synthesis, in silico and in vitro evaluation of pyrrole–indole hybrids as dual tubulin and aromatase inhibitors with potent anticancer activities” (RSC Advances, 2025)
